The values below come from patent US7868163B2, “Adenyl dinucleotides with antitumour activity and a method of preparing thereof” (Universita' Degli Studi Di Genova, priority 2005, dated 2011).

Series [1] in a line: Storage stability of purified lyophilised peaks. Particulars: stored at −20° C., several months (approx. 6). The protocol:
The cyclase purified from A. polypoides was used for the production of the dinucleotides for structural and functional studies. In a total volume of 0.4 ml of 10 mM Tris-HCl, pH 7.0, 0.05 mg of purified cyclase were incubated with 1 mM cADPR (or NAD^+), 5 mM adenine and 2 mM MgCl2 at room temperature. cADPR or NAD^+ was added to the reaction mixture every 6 hours, while every 24 hours fresh cyclase was added and an aliquot of the incubation was deproteinised with TCA (5% final concentration) and analysed by HPLC (analytical phosphate) to monitor dinucleotide production. After 3-5 days, the resulting incubation was extracted with TCA and 250 μl aliquots were injected into an HPLC column (preparative phosphate). The P18, P24 and P31 peaks were collected, lyophilised in a RotoVapor, re-dissolved in deionised water and injected into an HPLC column (preparative formate). […] The purified peaks produced by Axinella cyclase were used in in vitro experiments on the various cell types described hereinafter, for the enzymatic production of mononucleotides and nucleosides (see below), as internal and external HPLC standards to identify the dinucleotides in cell extracts, and for detecting the absorption spectra stored in the liquid chromatograph library as standards.

In a further series the test system is HEP-G2. Nature of the series: MTT reduction proliferation assay, HEP-G2. It counts as cell-based, human. As to conditions: HEP-G2 hepatocarcinoma, 24 hours. The protocol:
The effect of P18 and P24 on the proliferation of several cell lines was determined by the MTT reduction assay (Mosmann, T. (1983) J. Immunol. Methods 65, 55-63). […] After 24 hours, 10 μl of a 5 mg/ml solution of MTT were added to each well and the plates incubated for a further 2 hours. The supernatant was then removed from each well and the blue crystals produced by the reduction of the dye were dissolved in DMSO (200 μl/well). The optical absorbance at 570 nm was determined with a BioRad microplate reader.
In these experiments, cells were seeded onto 96 well plates (3×10^4 cells per well) and incubated in the presence of increasing concentrations of P18 or P24. After 24 hours, the percentage of viable cells was evaluated by spectrophotometric measurement of the concentration of reduced MTT (see Materials and Methods). The means of at least three separate experiments are shown (s.d.≦20% of the mean value). The production of P18 and P24 by human CD38 cyclase, with inhibitory effects on colony growth, together with cADPR, with stimulatory effect, may be at least partly responsible for the colony growth inhibition observed during long term culture of human HP cells on CD38^+ stroma. […]

The target in series [2] is T1, A. californica ADP-ribosyl cyclase (Aplysia californica, UniProt P29241).
T1 construct: The cyclase purified from the mollusc Aplysia californica was purchased from Sigma; purchased Sigma; host or cells: purified from the mollusc
T1 sequence (P29241 25-282): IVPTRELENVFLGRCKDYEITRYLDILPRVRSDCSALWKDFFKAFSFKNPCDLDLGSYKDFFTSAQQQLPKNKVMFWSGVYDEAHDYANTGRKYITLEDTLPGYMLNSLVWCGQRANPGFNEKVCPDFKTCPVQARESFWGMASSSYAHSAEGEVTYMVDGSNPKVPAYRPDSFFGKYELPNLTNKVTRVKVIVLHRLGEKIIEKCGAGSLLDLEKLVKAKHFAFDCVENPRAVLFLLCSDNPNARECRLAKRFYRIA
Nature of the series: Hydrolysis by Aplysia californica ADP-ribosyl cyclase. It counts as in vitro ADME. Particulars: P18 to adenine and ADPR. The method, then:
(A and B) or at 37° C. (C and D) for 4 hours. […] Chromatograms representative of each incubation are shown. A. A. polypoides; B. A. californica; C.
The activities are expressed as nmol/min/mg.

The test system of series [3] is A. polypoides ADP-ribosyl cyclase. Nature of the series: Hydrolysis by purified Axinella polypoides ADP-ribosyl cyclase. As to conditions: purified A. polypoides cyclase; P18 to cADPR and adenine. The protocol:
ADP-ribosyl cyclases from lower and higher Metazoa were incubated in the presence of 0.1 mM cADPR and 1 mM adenine at pH 7.4 in 10 mM Tris-HCl (A, B and C) or in PBS-glucose (D) at 22° C. (A and B) or at 37° C. (C and D) for 4 hours. Aliquots of the various incubations were deproteinised with TCA (trichloroacetic acid) and subjected to HPLC (analytical phosphate). Chromatograms representative of each incubation are shown. A. A. polypoides; B. A. californica; C. Human CD38 (recombinant); D. Human HeLa cells transfected with sense and antisense human CD38 (dashed chromatogram).
In table 1, the absolute values of the peak-forming and -hydrolysing activities are compared with the cADPR-forming and -hydrolysing activities for each enzyme. The activities are expressed as nmol/min/mg.

Series [4] concerns the target NAD-glycohydrolase (NAD-ase, from Neurospora) (Neurospora crassa, UniProt Q7S936). The series is described as follows: Resistance to NAD-glycohydrolase catalysed hydrolysis.
Protocol: The HPLC fractions were lyophilised, resuspended in 200 μl water and the pH eas adjusted to 7.5 with 5N NaOH. Then, in order to remove all traces of NAD^+ and cADPR (which might interfere with the enzymatic assay), NAD-glycohydrolase (NAD-ase, from Neurospora, Sigma) (0.013 IU), recombinant CD38 (0.1 μg, provided by Prof. H. C. Lee, Minneapolis, Minn.) and 2 mM MgCl2 were added to each fraction. […] All fractions were incubated at 37° C. for 18 hours, and the enzymes were removed by filtration with Immobilon-P membranes (Millipore, Bedford, Mass.). The samples were then subdivided into two aliquots and the P18 determination reactions were performed in 96 well plates, at room temperature. 50 μl of a mixture containing 30 mM nicotinamide, 100 mM sodium phosphate, with or without 0.1 μg/μl of ADP-ribosyl cyclase purified from A. polypoides, were added to 100 μl of each sample.

Structures are written as SMILES.

Sequence of NAD-glycohydrolase (NAD-ase, from Neurospora) (Q7S936 20-243): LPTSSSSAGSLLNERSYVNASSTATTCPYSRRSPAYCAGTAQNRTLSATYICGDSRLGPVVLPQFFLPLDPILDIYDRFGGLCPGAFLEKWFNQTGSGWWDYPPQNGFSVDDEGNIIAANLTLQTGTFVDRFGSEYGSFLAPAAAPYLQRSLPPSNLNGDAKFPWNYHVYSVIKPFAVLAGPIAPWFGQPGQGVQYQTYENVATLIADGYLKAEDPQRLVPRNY

As to `Nc1ncn([C@@H]2O[C@H](COP(=O)(O)OP(=O)(O)OC[C@H]3O[C@@H](n4cnc5c(N)ncnc54)[C@H](O)[C@@H]3O)[C@@H](O)[C@H]2O)c2ncnc1-2` [P24], the degradation on storage result in series [1] is recorded as “no dinucleotide degradation was observed”. In the series with HEP-G2, the IC50 was 18.2 µM.

As to `Nc1ncnc2c1ncn2[C@@H]1O[C@H](COP(=O)(O)OP(=O)(O)OC[C@H]2O[C@@H](n3cnc4ncnc-4c3N)[C@H](O)[C@@H]2O)[C@@H](O)[C@H]1O` [P18], the degradation on storage entry in series [1] is recorded as “no dinucleotide degradation was observed”. Also, the hydrolysis activity in series [2] is 3.5^1 nmol/min/mg; in series [3] it was 10.5^2 nmol/min/mg. For the same molecule, 78 µM corresponded to half-maximal inhibition in the series with HEP-G2 (IC50). Also, the “resistance to NAD-ase catalysed hydrolysis” value in series [4] is given as “resistance”.
